Data: US7855200B2, “Method for treatment of gastric ulcers and ulcers induced by aspirin” (Council of Scientific and Industrial Research, priority 2006, dated 2010)

How the values were obtained:
Format in all cases: in vivo, albino rats
Pylorus ligated rats = test: Pylorus ligated ulcers; conditions: 25 mg/kg, 4 hours after pylorus ligation
Outline: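 Albino rats, fasted 48 h, dosed with test compound (25 mg/kg, or 50, 25, 15, 10 and 5 mg/kg) or ranitidine 50 mg/kg in 1% Tween 80 vehicle. Pylorus ligated under ether 1 h post-dose. Gastric contents collected 4 h later, centrifuged, and total acid titrated with 0.01N NaOH.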

[1] = tested on: ethanol induced gastric ulcers; test: Ethanol induced ulcers; conditions: rats, 25 mg/kg, ethanol challenge
Outline: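 Rats in groups of 6, fasted 48 h, given Tween 80 (1%) vehicle, reference drugs, or test compounds at 25 mg/kg; lesions induced 1 h after ethanol challenge. Pylorus ligated under ether; 4 h later gastric contents centrifuged and total acid titrated with 0.01N NaOH.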

[2] = tested on: gastric ulcers induced by aspirin, ethanol, stress and pylorus ligation; test: Antigastric ulcer screening by four different models (statements in words); conditions: summary statement
From the text: The compounds taken under study for antigastric ulcer screening by four different models were selected using experimental albino rats: • 1. Aspirin induced gastric ulceration • 2. Pylorus ligated gastric ulceration • 3. Ethanol induced gastric ulceration • 4. Stress induced gastric ulceration
The commercially available drug ranitidine (sigma), Omeprazole (sigma) and sucralfate (Merck) were used as reference standard in experimental models. The Tween-80 (SD fine chemicals) was used as vehicle for the administration of the drug, which is used as control.

[3] = tested on: gastric ulceration in cold restraint rats; test: Cold restraint (stress) induced ulcers; set-up: Ulcer index Mean(SE): scale not given here; conditions: rats, 25 mg/kg per orally, 4° C. for 2 hours
Outline: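 Albino rats, fasted 48 h with free water, dosed orally with compound at 25 mg/kg or at 50, 25, 15, 10 and 5 mg/kg in 1% Tween 80 vehicle. Water removed 1 h before restraint at 4° C for 2 h. Sacrificed 2 h after stress; stomachs opened along greater curvature and scored as mean ulcer index.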

[4] = tested on: acetyl salicylic acid induced gastric lesions; test: Acetyl salicylic acid (aspirin) induced gastric ulcer; set-up: Ulcer index Mean(SE): scale not given here; conditions: rats, 25 mg/kg per orally daily for five days, aspirin 200 mg/kg
Outline: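 Rats in groups of 6 were dosed orally once a day for five days with test compounds suspended in 1% Tween 80. A 1% Tween 80 control group and a ranitidine 50 mg/kg group were included. Aspirin at 200 mg/kg was given orally 30 min after each dose. After a 24 hour fast, the rats were killed by cervical dislocation. Stomachs were opened along the greater curvature, rinsed with lukewarm saline, examined under a dissecting microscope and scored for ulcer index.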

Q: Which results are given for COC(=O)C1OC(Oc2ccc3c(=O)cc(-c4ccccc4)oc3c2)C(O)C(O)C1O (stereo not drawn) [CGL, 3,4,5-trihydroxy-6-(4-oxo-2-phenyl-4-H-chromen-7-yoloxy) tetrahydro-pyran-2-carboxylicacid methyl ester]?
A: Acidity Total mEg (Pylorus ligated rats): 40.00 (±1.15) m Eg; Gastric content (Pylorus ligated rats): 4.83 (±0.44); Inhibition % (Pylorus ligated rats): 60.17%; Ulcer index Mean(SE) (Pylorus ligated rats): 19.96 (±6.66); pH (Pylorus ligated rats): 3.08 (±0.22); Inhibition % [1]: 62.50%; Ulcer index Mean(SE) [1]: 25.00 (±2.88); Acidity Total mEg ([1]; 4 hours after pylorus ligation): 39.00 (±1.52) mEg; Gastric content ([1]; 4 hours after pylorus ligation): 4.60 (±0.20); pH ([1]; 4 hours after pylorus ligation): 3.91 (±0.21); antiulcer activity (in words) [2]: very good activity; Inhibition % [3]: 50.22%; Ulcer index Mean(SE) [3]: 20.00; Inhibition % [4]: 70.46%; Ulcer index Mean(SE) [4]: 13.33
